pIC50: −log10 of the molar value.
How the values were obtained:
Hela and MG63 cells = assay: RT-PCR of IFNβ gene induction in Hela and MG63 cells; format: cell-based, human
patients = details: huachansu, Meng et al.; cited from earlier work
293T cells [1] = assay: CellTiter-Blue and CellTiter-Glo viability assays; format: cell-based, human; details: 1 nM to 10 μM, 8 hours
Description: (§1) The cells were also exposed to 0.1% Triton X-100 for 1 hr before the viability assay as a control (FIG. 16E). Data represent mean values±s.d. (n=3). […] Cells were harvested and washed, then stained with Allophycocyanin (APC) conjugated Annexin V and 7-AAD for 15 minutes and subjected to flow cytometry analysis. The number in each graph is the percentile of Annexin V or 7-AAD positive populations. […] Total protein lysates were prepared and separated on SDS-PAGE for Western blot analysis of PARP1, cleaved PARP1, cleaved Caspase3, LC3B, ATP1a1, and beta-actin expression.
8 hours later, 20 μl of the CellTiter-Blue reagent (Promega) was added to each well and incubated for two more hours at 37° C. Fluorescence was recorded from 560 nm excitation/590 nm emission with a Spectramax Plus 384 plate reader. For CellTiter-Glo Luminescent viability assay, […] reagent (Promega) was added to each well and mixed, and incubated for 10 minutes at room temperature. Luminescence was measured with an Analyst AD plate reader.

[2] = test system: virus inducible genes in 293T cells; assay: Microarray and RT-PCR of gene expression in 293T cells treated with bufalin and/or SeV; format: cell-based, human
[3] = test system: PRDIV element of the IFNβ promoter; format: cell-based, human; details: absence of virus infection
293T cells [4] = assay: Intracellular sodium concentration measurement (SBFI) in 293T cells; format: cell-based, human; details: 1 μM, 30 minutes; from about 20 mM without
Description: Bound RIG-I protein was analyzed by western blot (top panel). The expression of IFNβ and Cxcl 10 genes in these cells was also analyzed by RT-PCR (bottom panel). FIG. 3B, high salt concentration inhibits RIG-I helicase activities while the effect on RNA binding is minor. Recombinant RIG-I protein was incubated with dsRNA (67 bp) in the presence of increasing NaCl and KCl concentrations. RNA binding was monitored by native agarose gel analysis (top panel). For the ATPase activities, samples were adjusted to 1 mM ATP and further incubated for 15 min at 37° C., free phosphate released was measured with BIOMOL GREEN reagent. The image of the plate was shown in the bottom panel, and signals from the reading were quantified and graphed in the middle panel. The lanes of the gel, bars of the graph and wells in the ATPase assay are aligned according to experimental conditions. […] 293T cells were loaded with 10 μM SBFI-AM in the presence of 0.02% Pluronic F-127 for 1 hour at 37° C. […] To generate the standard curve, SBFI-Am loaded cells were exposed to solutions with increasing concentrations of sodium in the presence of 10 μM gramicidin for 30 minutes at 37° C. and 340/380 nm fluorescence ratio determined. […]

293T cells [5] = assay: Western blot analysis of apoptosis and autophagy; format: cell-based, human; details: 8 hours, bufalin 1 nM to 10 μM, staurosporine 4 μM
Description: as §1
Apoptosis and autophagy were also analyzed by Western blots. […] Total protein lysates were prepared and separated on SDS-PAGE for Western blot analysis of PARP1, cleaved PARP1, cleaved Caspase3, LC3B, ATP1a1, and beta-actin expression.

[6] = test system: PRDII element of the IFNβ promoter; format: cell-based, human; details: 1 uM, compared with no drug treatment
Namalwa cells = assay: RT-PCR of virus induced IFNβ gene expression in Namalwa cells; format: cell-based, human
[7] = test system: PRDII element (NFkB binding site); format: cell-based, human; details: bufalin and TNF 24 hrs
MAP kinase P42/p44 = assay: EGF induced phosphorylation of MAP kinase in 293T cells; format: cell-based, human; details: 1 μM
MEFs = assay: RT-PCR of IFNβ induction in mouse embryonic fibroblasts (MEFs); format: cell-based; details: 1 uM; SeV, dsRNA, dsDNA
From the text: As discussed above, the mouse ATP1a1 protein is not sensitive to cardiac glycoside binding.

IFNβ promoter [8] = assay: cells; format: cell-based, human
virus = assay: Virus replication; format: cell-based
LPS signaling = assay: LPS induced gene expression in THP-1 cells; format: cell-based, human; details: 1 μM
IFNβ promoter [9] = assay: IFNβ reporter induced by over-expression of RIG-I, MAVS or TBK1 in 293T cells; format: cell-based, human
mice = assay: LPS induced lethality in mice; format: in vivo; details: 15 μg/mouse i.p. 30 min before LPS 80 mg/kg i.p.; 4 days

C[C@]12CC[C@H](O)C[C@H]1CC[C@@H]1[C@H]2CC[C@]2(C)[C@@H](c3ccc(=O)oc3)CC[C@]12O [Bufalin]
poly I:C and poly dA:dT induced IFNβ expression in Hela and Mg63 cells (Hela and MG63 cells): strongly inhibited | virus induced IFNβ expression in Hela and MG63 cells (Hela and MG63 cells): less than observed with 293T and Namalwa cells | well tolerated concentration of bufalin in patients (patients): up to 9 nM | cell viability (293T cells [1]): did not severely impair | IFNβ induction in cells preinfected with virus ([2]; SeV 1.5 hours, then 1 μM for 6 hours): strongly inhibits | induction of virus-induced genes (IFNβ, IL-8, IFIT1-3, ISG15, OASL, CXCL10, CCL5) ([2]; bufalin plus SeV, 8 hrs): completely blocked | activity of PRDIV reporter [3]: weakly induced | intracellular sodium concentration (293T cells [4]): over 120 mM | cleavage products of PARP1 and Caspase3 (indication of apoptosis) (293T cells [5]): not observed | induction of LC3B-II (marker of autophagy) (293T cells [5]; BFA 100 nM): not observed | repression of viral induction of luciferase expression, PRDII reporter [6]: > 86% | virus-induced IFNβ gene expression in Namalwa cells (Namalwa cells): Strong inhibition | decrease of TNF induced luciferase gene expression [7]: 40% | EGF induced phosphorylation of MAP kinase P42/p44 (MAP kinase P42/p44): no effect | induction of IFNβ gene by various inducers in MEFs (MEFs): little effects | inhibition of IFNβ expression (IFNβ promoter [8]; 1 uM): more than 90% | Inhibition % @ 10 μM of virus induced IFNβ expression (IFNβ promoter [8]; 10 μM, chemical library screen): 99.2% | IFN expression in the absence of virus infection (IFNβ promoter [8]; 1 and 10 uM, no virus): weakly induced | pIC50 (IFNβ promoter [8]; Homo sapiens, HEK-293T, read-out: IC50 for inhibition of virus induced IFNβ expression): 8.37 | virus replication (virus): inhibited | LPS induction of Il-8, TNF and IKBa (LPS signaling): minimal | LPS induced expression of Cxcl10 gene (LPS signaling; LPS 20 ng/ml, 2 hours): impaired | IFNβ reporter induction by MAVS over-expression (IFNβ promoter [9]): no effect | IFNβ reporter induction by TBK1 over-expression (IFNβ promoter [9]): little effect | virus induction of the IFNβ reporter when RIG-I was over-expressed (IFNβ promoter [9]): only slightly reduced | lethality induced by a high dose of LPS (mice): partially reduce
